Experimental data taken from patent publication US20110245223A1, “HETEROCYCLIC COMPOUNDS” (Japan Tobacco Inc., priority 2005, published 2011).

Target: T1, human HSD-1 (recombinant HSD-1) (Homo sapiens, UniProt P28845)
T1 construct: made in house
Experiment: HSD-1 (hydroxysteroid dehydrogenase 1) activity inhibitory action in vitro, SPA, conversion of cortisone to cortisol
Format: biochemical
Conditions: recombinant human HSD-1 expressed using baculovirus system, 10 nM 3H cortisone, 500 μM NADPH, room temperature 90 to 120 min, read-out: hHSD1 (IC50 (nM))

T1 sequence (P28845 whole entry): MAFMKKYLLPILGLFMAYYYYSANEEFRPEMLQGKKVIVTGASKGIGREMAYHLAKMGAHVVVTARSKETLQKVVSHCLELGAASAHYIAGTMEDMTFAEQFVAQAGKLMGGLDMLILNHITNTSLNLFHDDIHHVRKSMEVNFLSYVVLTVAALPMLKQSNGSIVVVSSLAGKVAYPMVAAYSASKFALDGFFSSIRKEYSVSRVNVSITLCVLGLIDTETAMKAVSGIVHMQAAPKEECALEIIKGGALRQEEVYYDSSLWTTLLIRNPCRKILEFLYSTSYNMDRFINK

IC50: < 30 nM
Structure (SMILES): O=C(OCCO)N1CCC(n2ncc(C(=O)N3CC[C@@H](c4ccccc4C(F)(F)F)C3)c2C2CC2)CC1 [Example 58, 1-{5-cyclopropyl-1-[1-(2-hydroxyethoxycarbonyl)piperidin-4-yl]-1H-pyrazole-4-carbonyl}-[(S)-3-(2-trifluoromethylphenyl)]pyrrolidine]
